Read-outs that look alike come from different tables or passages of the source. Numbered stars: 1 amine (or outer) side, 2 acyl side, 3 side chain; on linkers, the order of the positions; unused ones are H or OH. Bridge positions count the residues as written; N and C are the ends. Square brackets hold non-standard residues; d marks the D form. Peptide text beside a SMILES is read from it. * marks the point of attachment. DOTA = O=C(O)CN1CCN(CC(=O)O)CCN(CC(=O)*)CCN(CC(=O)O)CC1; Ala(quinolin-3-yl) = N[C@@H](Cc1cnc2ccccc2c1)C(=O)O; Phe(3-Cl) = N[C@@H](Cc1cccc(Cl)c1)C(=O)O; Arg(Me) = CNC(=N)NCCC[C@H](N)C(=O)O; 2Pal = N[C@@H](Cc1ccccn1)C(=O)O; X1 = O=C(CC1CCN([*:1])CC1)[*:2]; Lys(Me) = CNCCCC[C@H](N)C(=O)O; dTle = CC(C)(C)[C@@H](N)C(=O)O; Tle = CC(C)(C)[C@H](N)C(=O)O; Nle = CCCC[C@H](N)C(=O)O; Aib = CC(C)(N)C(=O)O
Key:
[1] = biological target: T1, PSMA-expressing C4-2 cells (Homo sapiens, UniProt Q04609); assay: FACS binding assay (competition with 50 nM PSM-0183); conditions: for IC50: FACS binding, read-out: pIC50 [C4-2] CAT (converted)
T1 construct: PSMA-expressing C4-2 cells (ATCC, Cat. No. CRL-3314) were cultured in RPMI-1640; host or cells: C4-2 cells
T1 sequence (Q04609 whole entry): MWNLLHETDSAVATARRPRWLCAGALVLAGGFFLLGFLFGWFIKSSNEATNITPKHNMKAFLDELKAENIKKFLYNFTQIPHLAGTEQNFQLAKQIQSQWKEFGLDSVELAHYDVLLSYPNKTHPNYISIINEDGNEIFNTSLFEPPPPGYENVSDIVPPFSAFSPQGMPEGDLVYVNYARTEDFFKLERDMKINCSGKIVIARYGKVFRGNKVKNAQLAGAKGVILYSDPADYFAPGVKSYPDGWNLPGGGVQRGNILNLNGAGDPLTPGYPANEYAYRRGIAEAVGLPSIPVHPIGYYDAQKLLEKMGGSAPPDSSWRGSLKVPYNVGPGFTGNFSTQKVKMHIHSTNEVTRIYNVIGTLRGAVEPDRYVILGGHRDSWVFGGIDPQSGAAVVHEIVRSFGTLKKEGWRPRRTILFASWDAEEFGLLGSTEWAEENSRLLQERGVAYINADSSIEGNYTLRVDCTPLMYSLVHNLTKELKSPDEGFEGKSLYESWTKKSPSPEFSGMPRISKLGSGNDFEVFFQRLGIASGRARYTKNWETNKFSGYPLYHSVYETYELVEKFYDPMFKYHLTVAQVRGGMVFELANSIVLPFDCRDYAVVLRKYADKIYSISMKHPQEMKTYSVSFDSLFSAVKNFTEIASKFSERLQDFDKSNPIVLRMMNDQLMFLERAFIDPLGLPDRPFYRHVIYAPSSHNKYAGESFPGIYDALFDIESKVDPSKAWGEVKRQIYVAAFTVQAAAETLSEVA
Procedure, shortened: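 C4-2 cells were incubated 1 h at 4 °C with 50 nM AF488-labelled peptide PSM-0183 plus increasing test compound concentrations, then washed twice in ice-cold buffer. Median fluorescence in the AF488 channel was read by flow cytometry. IC50/pIC50 was derived by 4PL fitting of MFI versus concentration.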

[2] = biological target: T2, Fc-fusion protein of human PSMA (hPSMA-Fc) (Homo sapiens, UniProt Q04609); assay: Surface plasmon resonance assay (Biacore T200, single cycle kinetic); assay type: binding; conditions: for Kd: read-out: pKD CAT (converted)
T2 construct: purchased Acro Biosystems PSA-H5264
T2 sequence (Q04609 44-750 limits assumed): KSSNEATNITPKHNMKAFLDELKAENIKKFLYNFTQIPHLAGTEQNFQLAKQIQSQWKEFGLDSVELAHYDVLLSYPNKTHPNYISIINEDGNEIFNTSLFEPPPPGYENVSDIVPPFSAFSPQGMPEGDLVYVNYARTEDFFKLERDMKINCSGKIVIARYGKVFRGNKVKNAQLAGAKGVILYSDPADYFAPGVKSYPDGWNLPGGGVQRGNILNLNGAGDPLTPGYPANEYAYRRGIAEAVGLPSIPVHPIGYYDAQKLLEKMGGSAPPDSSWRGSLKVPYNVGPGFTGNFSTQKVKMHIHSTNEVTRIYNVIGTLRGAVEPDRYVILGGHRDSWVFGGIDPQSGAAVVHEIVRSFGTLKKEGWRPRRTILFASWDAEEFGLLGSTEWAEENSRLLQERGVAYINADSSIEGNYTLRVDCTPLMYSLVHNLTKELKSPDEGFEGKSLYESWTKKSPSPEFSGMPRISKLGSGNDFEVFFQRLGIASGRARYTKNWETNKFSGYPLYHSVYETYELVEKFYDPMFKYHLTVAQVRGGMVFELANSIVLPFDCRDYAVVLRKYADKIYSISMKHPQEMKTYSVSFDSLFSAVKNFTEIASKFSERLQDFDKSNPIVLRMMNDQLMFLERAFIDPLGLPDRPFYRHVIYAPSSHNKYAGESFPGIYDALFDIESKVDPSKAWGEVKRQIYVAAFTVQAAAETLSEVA
Procedure, shortened: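 hPSMA-Fc was captured (~1000 RU) on an Fc-binding-peptide CM5 chip, and compounds were run in single cycle kinetic mode at 25° C in HBST with 0.1% DMSO. Double-blank-corrected sensorgrams were fitted to a 1:1 Langmuir model to give KD, reported as pKD.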

[3] = PSMA-expressing C4-2 cells, pIC50 category
[4] = PSMA SPR assay, hPSMA-Fc, 25° C., pKD category
[5] = C4-2 cells, competition with 50 nM PSM-0183, category
[6] = SPR, hPSMA-Fc, single cycle kinetic, 25° C., category

Molecule | IC50 [1, 3] [nM] | Kd [2, 4] [nM] | IC50 [1, 5] [nM] | Kd [2, 6] [nM] | also measured
InDOTA-Cmp-Thr-Aib-Pcf-[Cys-Lys(Me)-Arg(Me)-Aib-Asn-Cys]-Tle-NH2 [PSM-0519] | – | – | – | – | pIC50 [C4-2] CAT ([1]; pIC50 category of FACS binding, C4-2 cells): A (pIC50 values >6.7); pKD CAT ([2]; pKD category for PSMA SPR activity assay, hPSMA-Fc, 25° C.): A (pKD values >7.9)
CCCC[C@H](NC(=O)[C@@H]1CSSC[C@H](NC(=O)[C@H](Cc2ccccc2)NC(=O)[C@H](C)NC(=O)[C@@H](NC(C)=O)[C@@H](C)O)C(=O)N[C@@H](CCCCN)C(=O)N[C@@H](C)C(=O)N[C@@H](C)C(=O)N[C@@H](CC(N)=O)C(=O)N1)C(=O)N[C@H](C(=O)N[C@@H](CC(=O)O)C(N)=O)[C@@H](C)O [PSM-0581, Ac-Thr-Ala-Phe-[Cys-Lys-Ala-Ala-Asn-Cys]-Nle-Thr-Asp-NH2] (Ac-TAFCKAANC[Nle]TD-NH2; disulfide 4-9) | – | – | – | – | IC50 ([1]; C4-2 cells, category): 1260 to 3160 nM; Kd ([2]; PSMA SPR assay, category): > 501 nM
CC(=O)N[C@H](C(=O)NC(C)(C)C(=O)N[C@@H](Cc1ccccc1)C(=O)N[C@H]1CSSC[C@@H](C(=O)N[C@H](C(N)=O)C(C)(C)C)NC(=O)[C@H](CC(N)=O)NC(=O)C(C)(C)NC(=O)[C@H](CCCNC(=N)N)NC(=O)[C@H](CCCCN)NC1=O)[C@@H](C)O [PSM-0230, Ac-Thr-Aib-Phe-[Cys-Lys-Arg-Aib-Asn-Cys]-Tle-NH2] (Ac-T[Aib]FCKR[Aib]NC[Tle]-NH2; disulfide 4-9) | – | – | < 200 | < 12.6 | –
CNCCCC[C@@H]1NC(=O)[C@@H](NC(=O)[C@H](Cc2ccccn2)NC(=O)C(C)(C)NC(=O)[C@@H](NC(=O)CC2CCN(C(=O)CN3CCN(CC(=O)O)CCN(CC(=O)O)CCN(CC(=O)O)CC3)CC2)[C@@H](C)O)CSSC[C@@H](C(=O)N[C@H](C(=O)N[C@H](C(N)=O)[C@@H](C)O)C(C)(C)C)NC(=O)[C@H](CC(N)=O)NC(=O)C(C)(C)NC(=O)[C@H](CCCNC(=N)NC)NC1=O [PSM-0257, DOTA-Cmp-Thr-Aib-Opa-[Cys-Lys(Me)-Arg(Me)-Aib-Asn-Cys]-Tle-Thr-NH2] ({DOTA}-[X1]T[Aib][2Pal]C[Lys(Me)][Arg(Me)][Aib]NC[Tle]T-NH2; disulfide 5-10) | – | – | 200 to 1260 | 12.6 to 126 | –
CC(=O)NC(C)(C)C(=O)N[C@@H](Cc1ccccc1)C(=O)N[C@H]1CSSC[C@@H](C(=O)N[C@H](C(=O)N[C@H](C(N)=O)[C@@H](C)O)C(C)(C)C)NC(=O)[C@H](CC(N)=O)NC(=O)C(C)(C)NC(=O)[C@H](CCCNC(=N)N)NC(=O)[C@H](CCCCN)NC1=O [PSM-0228, Ac-Aib-Phe-[Cys-Lys-Arg-Aib-Asn-Cys]-Tle-Thr-NH2] (Ac-[Aib]FCKR[Aib]NC[Tle]T-NH2; disulfide 3-8) | – | – | < 200 | < 12.6 | –

Now from value to molecule, other results behind:

IC50 [1, 3] [nM] | Kd [2, 4] [nM] | IC50 [1, 5] [nM] | Kd [2, 6] [nM] | Molecule | also measured
200 to 1260 | 126 to 501 | – | – | CC(=O)N[C@H](C(=O)NC(C)(C)C(=O)N[C@@H](Cc1ccccc1)C(=O)N[C@H]1CSSC[C@@H](C(=O)N[C@@H](C(=O)N[C@H](C(N)=O)[C@@H](C)O)C(C)(C)C)NC(=O)[C@H](CC(N)=O)NC(=O)C(C)(C)NC(=O)[C@H](CCCNC(=N)N)NC(=O)[C@H](CCCCN)NC1=O)[C@@H](C)O [PSM-0350, Ac-Thr-Aib-Phe-[Cys-Lys-Arg-Aib-Asn-Cys]-leu-Thr-NH2] (Ac-T[Aib]FCKR[Aib]NC[dTle]T-NH2; disulfide 4-9) | –
< 200 | 12.6 to 126 | – | – | CNCCCC[C@@H]1NC(=O)[C@@H](NC(=O)[C@H](Cc2cccc(Cl)c2)NC(=O)C(C)(C)NC(=O)[C@@H](NC(=O)CC2CCN(C(=O)CN3CCN(CC(=O)O)CCN(CC(=O)O)CCN(CC(=O)O)CC3)CC2)[C@@H](C)O)CSSC[C@@H](C(=O)N[C@H](C(N)=O)C(C)(C)C)NC(=O)[C@H](CC(N)=O)NC(=O)C(C)(C)NC(=O)[C@H](CCCNC(=N)NC)NC1=O [PSM-0354, DOTA-Cmp-Thr-Aib-Mcf-[Cys-Lys(Me)-Arg(Me)-Aib-Asn-Cys]-Tle-NH2] ({DOTA}-[X1]T[Aib][Phe(3-Cl)]C[Lys(Me)][Arg(Me)][Aib]NC[Tle]-NH2; disulfide 5-10) | –
1260 to 3160 | > 501 | – | – | CNCCCC[C@@H]1NC(=O)[C@@H](NC(=O)[C@H](Cc2cnc3ccccc3c2)NC(=O)C(C)(C)NC(=O)[C@@H](NC(=O)CC2CCN(C(=O)CN3CCN(CC(=O)O)CCN(CC(=O)O)CCN(CC(=O)O)CC3)CC2)[C@@H](C)O)CSSC[C@@H](C(=O)N[C@H](C(=O)N[C@H](C(N)=O)[C@@H](C)O)C(C)(C)C)NC(=O)[C@H](CC(N)=O)NC(=O)C(C)(C)NC(=O)[C@H](CCCNC(=N)NC)NC1=O [PSM-0337, DOTA-Cmp-Thr-Aib-2Qi-[Cys-Lys(Me)-Arg(Me)-Aib-Asn-Cys]-Tle-Thr-NH2] ({DOTA}-[X1]T[Aib][Ala(quinolin-3-yl)]C[Lys(Me)][Arg(Me)][Aib]NC[Tle]T-NH2; disulfide 5-10) | –

From US20260083865A1, “PROSTATE SPECIFIC MEMBRANE ANTIGEN (PSMA) LIGANDS AND USE THEREOF” (priority 2022, published 2026)
